We go through 5 compounds from ChEMBL document CHEMBL1142144, “Semimechanistic pharmacokinetic/pharmacodynamic model for assessment of activity of antibacterial agents from time-kill curve experiments” (2007).

Each structure is given as a SMILES string. ≈ marks a conversion by molar mass, not a printed value.

In the assay the test system is Streptococcus pyogenes. As to the kind of experiment: Antibacterial activity against Streptococcus pyogenes M12 by time-kill curve assay. Format: functional.
In general, MIC refers to the lowest concentration that inhibits growth of the organism. Lower therefore signals inhibition by little substance. Consider `CO/N=C(\C(=O)N[C@@H]1C(=O)N2C(C(=O)O)=C(COC(N)=O)CS[C@H]12)c1ccco1` [CEFUROXIME], for which the MIC worked out at 0.0313 µg/mL (≈ 0.0738 µM).
Under `CC1(C)S[C@@H]2[C@H](NC(=O)Cc3ccccc3)C(=O)N2[C@H]1C(=O)O` [PENICILLIN G] stands 0.012 µg/mL (≈ 0.0359 µM).
The compound `CC[C@H]1OC(=O)[C@H](C)[C@@H](O[C@H]2C[C@@](C)(OC)[C@@H](O)[C@H](C)O2)[C@H](C)[C@@H](O[C@@H]2O[C@H](C)C[C@H](N(C)C)[C@H]2O)[C@](C)(O)C[C@@H](C)C(=O)[C@H](C)[C@@H](O)[C@]1(C)O` [ERYTHROMYCIN] had an MIC of 0.125 µg/mL (≈ 0.17 µM).
`CN[C@H](CC(C)C)C(=O)N[C@H]1C(=O)N[C@@H](CC(N)=O)C(=O)N[C@H]2C(=O)N[C@H]3C(=O)N[C@H](C(=O)N[C@H](C(=O)O)c4cc(O)cc(O)c4-c4cc3ccc4O)[C@H](O)c3ccc(c(Cl)c3)Oc3cc2cc(c3O[C@@H]2O[C@H](CO)[C@@H](O)[C@H](O)[C@H]2O[C@H]2C[C@](C)(N)[C@H](O)[C@H](C)O2)Oc2ccc(cc2Cl)[C@H]1O` [VANCOMYCIN] came in with an MIC of 0.25 µg/mL (≈ 0.173 µM).
Then `COc1c(N2C[C@@H]3CCCN[C@@H]3C2)c(F)cc2c(=O)c(C(=O)O)cn(C3CC3)c12` [MOXIFLOXACIN], with 0.125 µg/mL (≈ 0.311 µM).
